Data reported in patent US6875727B2, “Use of macrolides in pest control” (Syngenta Crop Protection, Inc., priority 1998, dated 2005).

Assays:
Type in all cases: in vivo
[1] = system: Spodoptera littoralis larvae; assay: Spray action on transgenic cotton plants against Spodoptera littoralis larvae
Source text: (§1) Young transgenic cotton plants which express the δ-endotoxin CryIIIA are sprayed with an aqueous emulsion spray mixture comprising 100, 50, 10, 5, 1 ppm of emamectin-benzoate respectively. After the spray coating has dried on, the cotton plants are populated with 10 adult Anthonomus grandis, 10 Spodoptera littoralis larvae or 10 Heliothis virescens larvae respectively and introduced into a plastic container. Evaluation takes place 3 to 10 days later. The percentage reduction in population, or the percentage reduction in feeding damage (% action), is determined by comparing the number of dead beetles and the feeding damage on the transgenic cotton plants with that of non-transgenic cotton plants which have been treated with an emulsion spray mixture comprising emamectin-benzoate and conventional CryIIIA-toxin at a concentration of in each case 100, 50, 10, 5, 1 ppm respectively.
as §1, with “abamectin” for “emamectin-benzoate”
as §1, with “spinosad” for “emamectin-benzoate”
as §1, with “δ-endotoxin CryIa(c)” for “δ-endotoxin CryIIIA”, “of spinosad” for “of emamectin-benzoate”, “comprising spinosad” for “comprising emamectin-benzoate”
(§2) Young transgenic cotton plants which express the δ-endotoxin CryIa(c) are sprayed with an aqueous emulsion spray mixture comprising 100, 50, 10, 5, 1 ppm of abamectin respectively. After the spray coating has dried on, the cotton plants are populated with 10 adult Anthonomus grandis, 10 Spodoptera littoralis larvae or 10 Heliothis virescens larvae respectively and introduced into a plastic container. Evaluation takes place 3 to 10 days later. […]

Heliothis spp. = assay: Plot test, maize cv. KnockOut vs conventional maize, natural infestation with Heliothis spp.; conditions: for control of Heliothis on plot (a): plot (a) maize cv. KnockOut, spray 200, 100, 50, 10, 5, 1 ppm, evaluation 6 days later; for control level on plot (b): plot (b) conventional maize, also treated with 200, 100, 50, 10, 5, 1 ppm of the endotoxin expressed by KnockOut, 6 days
Description: (§3) A plot (a) planted with maize cv. KnockOut® and an adjacent plot (b) of the same size which is planted with conventional maize, both showing natural infestation with Ostrinia nubilalis, Spodoptera spp. or Heliothis, are sprayed with an aqueous emulsion spray mixture comprising 200, 100, 50, 10, 5, 1 ppm of spinosad. Immediately afterwards, plot (b) is treated with an emulsion spray mixture comprising 200, 100, 50, 10, 5, 1 ppm of the endotoxin expressed by KnockOut®. Evaluation takes place 6 days later. The percentage reduction in population (% action) is determined by comparing the number of dead pests on the plants of plot (a) with that on the plants of plot (b).
as §3, with “sp” for “spp.”, “abamectin.” for “spinosad.”
as §3, with “sp” for “spp.”, “emamectin benzoate.” for “spinosad.”

[2] = system: Heliothis virescens larvae; assay: Spray action on transgenic cotton plants against Heliothis virescens larvae
Source text: as §1
as §1, with “abamectin” for “emamectin-benzoate”
as §1, with “spinosad” for “emamectin-benzoate”
as §1, with “δ-endotoxin CryIa(c)” for “δ-endotoxin CryIIIA”, “of spinosad” for “of emamectin-benzoate”, “comprising spinosad” for “comprising emamectin-benzoate”
as §2

Ostrinia nubilalis = assay: Plot test, maize cv. KnockOut vs conventional maize, natural infestation with Ostrinia nubilalis; conditions: for control of Ostrinia nubilalis on plot (a): plot (a) maize cv. KnockOut, spray 200, 100, 50, 10, 5, 1 ppm, evaluation 6 days later; for control level on plot (b): plot (b) conventional maize, also treated with 200, 100, 50, 10, 5, 1 ppm of the endotoxin expressed by KnockOut, 6 days
Description: as §3
as §3, with “sp” for “spp.”, “abamectin.” for “spinosad.”
as §3, with “sp” for “spp.”, “emamectin benzoate.” for “spinosad.”

[3] = system: Anthonomus grandis adults; assay: Spray action on transgenic cotton plants against Anthonomus grandis adults
Source text: as §1
as §1, with “abamectin” for “emamectin-benzoate”
as §1, with “spinosad” for “emamectin-benzoate”
as §1, with “δ-endotoxin CryIa(c)” for “δ-endotoxin CryIIIA”, “of spinosad” for “of emamectin-benzoate”, “comprising spinosad” for “comprising emamectin-benzoate”
as §2

Spodoptera spp. = assay: Plot test, maize cv. KnockOut vs conventional maize, natural infestation with Spodoptera spp.; conditions: for control of Spodoptera spp. on plot (a): plot (a) maize cv. KnockOut, spray 200, 100, 50, 10, 5, 1 ppm, evaluation 6 days later; for control level on plot (b): plot (b) conventional maize, also treated with 200, 100, 50, 10, 5, 1 ppm of the endotoxin expressed by KnockOut, 6 days
Description: as §3
as §3, with “sp” for “spp.”, “abamectin.” for “spinosad.”
as §3, with “sp” for “spp.”, “emamectin benzoate.” for “spinosad.”

[4] = non-transgenic cotton, spray mixture with conventional CryIIIA-toxin, each 100, 50, 10, 5, 1 ppm (comparison to CryIIIA cotton)
[5] = non-transgenic cotton, spray mixture with conventional CryIIIA-toxin, each 100, 50, 10, 5, 1 ppm (comparison to CryIa(c) cotton)
[6] = transgenic cotton expressing δ-endotoxin CryIIIA, spray 100, 50, 10, 5, 1 ppm, evaluation 3 to 10 days
[7] = transgenic cotton expressing δ-endotoxin CryIa(c), spray 100, 50, 10, 5, 1 ppm, evaluation 3 to 10 days

Substance	control of the tested insects (% action: reduction in population or feeding damage) [1, 4]	control of the tested insects (% action: reduction in population or feeding damage) [1, 5]	control of the tested insects (% action: reduction in population or feeding damage) [1, 6]	control of the tested insects (% action: reduction in population or feeding damage) [1, 7]	control of Heliothis on plot (a) (Heliothis spp.)	control level on plot (b) (Heliothis spp.)	control of the tested insects (% action: reduction in population or feeding damage) [2, 4]	control of the tested insects (% action: reduction in population or feeding damage) [2, 5]	control of the tested insects (% action: reduction in population or feeding damage) [2, 6]	control of the tested insects (% action: reduction in population or feeding damage) [2, 7]	control of Ostrinia nubilalis on plot (a) (Ostrinia nubilalis)	control level on plot (b) (Ostrinia nubilalis)	control of the tested insects (% action: reduction in population or feeding damage) [3, 4]	control of the tested insects (% action: reduction in population or feeding damage) [3, 5]	control of the tested insects (% action: reduction in population or feeding damage) [3, 6]	control of the tested insects (% action: reduction in population or feeding damage) [3, 7]	control of Spodoptera spp. on plot (a) (Spodoptera spp.)	control level on plot (b) (Spodoptera spp.)
abamectin	insufficient	insufficient	superior	superior	Improved control	≤ 80%	insufficient	insufficient	superior	superior	Improved control	≤ 80%	insufficient	insufficient	superior	superior	Improved control	≤ 80%
emamectin-benzoate	insufficient	insufficient	superior	superior	Improved control	≤ 80%	insufficient	insufficient	superior	superior	Improved control	≤ 80%	insufficient	insufficient	superior	superior	Improved control	≤ 80%
spinosad	insufficient	insufficient	superior	superior	Improved control	≤ 80%	insufficient	insufficient	superior	superior	Improved control	≤ 80%	insufficient	insufficient	superior	superior	Improved control	≤ 80%
